Experimental findings from patent US20240158446A1, “CYCLIC COMPOUND HAVING SELECTIVE INHIBITORY ACTION ON KRAS OVER HRAS AND NRAS” (CHUGAI SEIYAKU KABUSHIKI KAISHA, priority 2021, published 2024) are described below.

Assay [1] deals with GDP-bound HRAS wild-type protein (Homo sapiens, UniProt P01112). Nature of the assay: Binding to HRAS by surface plasmon resonance (SPR), Single Cycle Kinetics. The following applies: SPR, GDP-bound HRAS wild-type protein vs GDP-bound KRAS wild-type protein.
In assay [2] the target is GDP-bound KRAS wild-type protein (Homo sapiens, UniProt P01116). Nature of the assay: Binding to KRAS by surface plasmon resonance (SPR), Single Cycle Kinetics. Conditions: GDP-bound KRAS wild-type protein, read-out: KRAS KD.
Sequence of GDP-bound KRAS wild-type protein (P01116 whole entry): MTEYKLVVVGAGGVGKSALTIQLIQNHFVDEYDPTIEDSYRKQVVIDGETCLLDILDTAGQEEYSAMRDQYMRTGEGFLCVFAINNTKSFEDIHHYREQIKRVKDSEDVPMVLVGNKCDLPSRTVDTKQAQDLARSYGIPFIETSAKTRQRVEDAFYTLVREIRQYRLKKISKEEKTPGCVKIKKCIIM
The target of assay [3] is GDP-bound NRAS wild-type protein (Homo sapiens, UniProt P01111). Nature of the assay: Binding to NRAS by surface plasmon resonance (SPR), Single Cycle Kinetics. The following applies: SPR, GDP-bound NRAS wild-type protein vs GDP-bound KRAS wild-type protein.
Sequence of GDP-bound NRAS wild-type protein (P01111 whole entry): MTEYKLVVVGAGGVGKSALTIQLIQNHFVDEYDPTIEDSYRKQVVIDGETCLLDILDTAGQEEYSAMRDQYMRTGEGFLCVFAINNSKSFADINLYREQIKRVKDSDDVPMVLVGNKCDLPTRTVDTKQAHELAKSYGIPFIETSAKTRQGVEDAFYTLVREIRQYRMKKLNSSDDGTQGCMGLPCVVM
Setting [4] is: SPR, Single Cycle Kinetics, 1:1 binding model.
Setting [5] is: SPR Single Cycle Kinetics, 1:1 binding model.

Molecules are shown by their SMILES. Read-outs that look alike come from different tables or passages of the source. *1 amine or outer side, *2 acyl side, *3 side chain or, on linkers, in order; H or OH if unused. Where a SMILES comes first, the peptide text is derived from it. Bridges are numbered along the chain shown (N, C = ends). [ ]: non-standard residue; d: D form. The star is where a group is joined. hPhe(3,5-F2-4-CF3) = N[C@@H](CCc1cc(F)c(C(F)(F)F)c(F)c1)C(=O)O; hPhe(3-Cl-4-CF3) = N[C@@H](CCc1ccc(C(F)(F)F)c(Cl)c1)C(=O)O; X31 = COCCCN([C@@H](Cc1ccc(C(F)(F)F)cc1)C(=O)[*:2])[*:1]; NPrPhe(4-CF3) = CCCN[C@@H](Cc1ccc(C(F)(F)F)cc1)C(=O)O; NMeAbu(4,4,4-F3) = CN[C@@H](CC(F)(F)F)C(=O)O; NMeGly(cPent) = CN[C@H](C(=O)O)C1CCCC1; Pro(4,4-F2) = O=C(O)[C@@H]1CC(F)(F)CN1; NMeD = CN[C@@H](CC(=O)O)C(=O)O; NMeL = CN[C@@H](CC(C)C)C(=O)O; Morpholide = C1CN(*)CCO1; Ac5c = NC1(C(=O)O)CCCC1; NEtG = CCNCC(=O)O; Sar = CNCC(=O)O

Sequence of GDP-bound HRAS wild-type protein (P01112 whole entry): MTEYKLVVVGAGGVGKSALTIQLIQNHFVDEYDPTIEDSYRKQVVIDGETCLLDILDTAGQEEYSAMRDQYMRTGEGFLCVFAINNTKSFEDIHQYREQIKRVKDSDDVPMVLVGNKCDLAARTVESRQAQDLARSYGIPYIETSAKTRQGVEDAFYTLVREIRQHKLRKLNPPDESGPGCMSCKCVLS

On to `CC[C@H](C)[C@@H]1NC(=O)[C@H](CC2CC2)N(C)C(=O)C[C@@H](C(=O)N(C)C)N(C)C(=O)[C@H](C2CCCC2)N(C)C(=O)C2(CCC2)NC(=O)[C@@H]2C[C@H](C)CN2C(=O)[C@H](CCc2cc(F)c(C(F)(F)F)c(F)c2)NC(=O)CN(C)C(=O)[C@H](Cc2ccc(C(F)(F)F)cc2)N2CC/C=C\C[C@@H](C2=O)N(C)C(=O)CN(C)C1=O` [PP1499, (2S,8S,12S,14S,20S,23S,27S,30S,36S,38Z)-20-cyclopentyl-27-(cyclopropylmethyl)-8-[2-[3,5-difluoro-4-(trifluoromethyl)phenyl]ethyl]-N,N,4,12,19,22,26,32,35-nonamethyl-30-[(1S)-1-methylpropyl]-3,6,9,15,18,21,25,28,31,34,42-undecaoxo-2-[[4-(trifluoromethyl)phenyl]methyl]spiro[1,4,7,10,16,19,22,26,29,32,35-undecazatricyclo[34.5.1.0^10,14]dotetracont-38-ene-17,1′-cyclobutane]-23-carboxamide], for which, in assay [1] (KD ratio class), the “HRAS/KRAS (ratio of KD value for HRAS to KD value for KRAS)” value was “B (a compound having 3 or more and less than 10 is denoted as B)”. Further, in assay [2] (setting [4]), the Kd is 0.054 nM. In addition, in assay [3] (KD ratio class), the “NRAS/KRAS (ratio of KD value for NRAS to KD value for KRAS)” value is “A (a compound having 10 or more and less than 20 is denoted as A)”.
In the case of `CC[C@H](C)[C@@H]1NC(=O)[C@H](CC(C)C)N(C)C(=O)C[C@@H](C(=O)N2CCOCC2)N(C)C(=O)[C@H](C2CCCC2)N(C)C(=O)C2(CCCC2)NC(=O)[C@@H]2CCCN2C(=O)[C@H](CCc2ccc(C(F)(F)F)c(Cl)c2)NC(=O)CN(C)C(=O)[C@H](Cc2ccc(C(F)(F)F)cc2)N(CCCOC)C(=O)CN(C)C(=O)CN(C)C1=O` [PP0133] ([NMeL]I[Sar][Sar][X31][Sar][hPhe(3-Cl-4-CF3)]P[Ac5c][NMeGly(cPent)][NMeD]-Morpholide; lactam N-11), the “HRAS/KRAS (ratio of KD value for HRAS to KD value for KRAS)” value in assay [1] was “C (A compound having a KD ratio of 0.1 or more and less than 3 is denoted as C)”. Also, in assay [2] (setting [5]), the Kd turned out to be 0.08 nM. For the same compound, the “NRAS/KRAS (ratio of KD value for NRAS to KD value for KRAS)” value in assay [3] is “B (a compound having 3 or more and less than 10 is denoted as B)”.
For `CCO[C@@H]1C[C@H]2C(=O)NC3(CCC3)C(=O)N(C)[C@@H](C3CCCC3)C(=O)N(CC)[C@H](C(=O)N3CCOCC3)CC(=O)N(C)[C@@H](CC(C)C)C(=O)N[C@@H]([C@@H](C)CC)C(=O)N(C)CC(=O)N(C)[C@H]3CCCCN(C3=O)[C@@H](Cc3ccc(C(F)(F)F)cc3)C(=O)N(C)CC(=O)N[C@@H](CCc3cc(F)c(C(F)(F)F)c(F)c3)C(=O)N2C1` [PP0648], the “HRAS/KRAS (ratio of KD value with respect to HRAS to KD value with respect to KRAS)” value in assay [1] is “B (a compound having 3 or more and less than 10 is denoted as B)”. The dissociation constant (Kd) in assay [2] (setting [5]) was 0.21 nM. Also, the “NRAS/KRAS (ratio of KD value with respect to NRAS to KD value with respect to KRAS)” value in assay [3] is “B (a compound having 3 or more and less than 10 is denoted as B)”.
As for `CCCN1C(=O)CN(C)C(=O)CN(C)C(=O)[C@H]([C@@H](C)CC)NC(=O)[C@H](CC(C)C)N(C)C(=O)C[C@@H](C(=O)N(C)C)N(C)C(=O)[C@H](CC(F)(F)F)N(C)C(=O)C2(CCCC2)NC(=O)[C@@H]2CCCN2C(=O)[C@H](CCc2cc(F)c(C(F)(F)F)c(F)c2)NC(=O)CN(C)C(=O)[C@@H]1Cc1ccc(C(F)(F)F)cc1` [PP0746] ([NMeL]I[Sar][Sar][NPrPhe(4-CF3)][Sar][hPhe(3,5-F2-4-CF3)]P[Ac5c][NMeAbu(4,4,4-F3)][NMeD]-NMe2; lactam N-11), the “HRAS/KRAS (ratio of KD value with respect to HRAS to KD value with respect to KRAS)” value in assay [1] was “C (A compound having a KD ratio of 0.1 or more and less than 3 is denoted as C)”. In addition, the Kd in assay [2] (setting [5]) was 0.43 nM. Moreover, the “NRAS/KRAS (ratio of KD value with respect to NRAS to KD value with respect to KRAS)” value in assay [3] was “B (a compound having 3 or more and less than 10 is denoted as B)”.
For the compound `CC[C@H](C)[C@@H]1NC(=O)[C@H](CC2CC2)N(C)C(=O)C[C@@H](C(=O)N(C)C)N(C)C(=O)[C@H](C2CCCC2)N(C)C(=O)C2(CCCC2)NC(=O)[C@@H]2CC(F)(F)CN2C(=O)[C@H](CCc2cc(F)c(C(F)(F)F)c(F)c2)NC(=O)CN(C)C(=O)[C@H](Cc2ccc(C(F)(F)F)cc2)N2CC/C=C\C[C@@H](C2=O)N(C)C(=O)CN(C)C1=O` [PP1513, (2S,8S,14S,20S,23S,27S,30S,36S,38Z)-20-cyclopentyl-27-(cyclopropylmethyl)-8-[2-[3,5-difluoro-4-(trifluoromethyl)phenyl]ethyl]-12,12-difluoro-N,N,4,19,22,26,32,35-octamethyl-30-[(1S)-1-methylpropyl]-3,6,9,15,18,21,25,28,31,34,42-undecaoxo-2-[[4-(trifluoromethyl)phenyl]methyl]spiro[1,4,7,10,16,19,22,26,29,32,35-undecazatricyclo[34.5.1.0^10,14]dotetracont-38-ene-17,1′-cyclopentane]-23-carboxamide], the “HRAS/KRAS (ratio of KD value for HRAS to KD value for KRAS)” value in assay [1] (KD ratio class) is “A (a compound having 10 or more and less than 20 is denoted as A)”. In assay [2] (setting [4]), the Kd stood at 0.071 nM. Moreover, in assay [3] (KD ratio class), the “NRAS/KRAS (ratio of KD value for NRAS to KD value for KRAS)” value was “A (a compound having 10 or more and less than 20 is denoted as A)”.
As for `CCO[C@@H]1C[C@H]2C(=O)NC3(CC(C)(C)C3)C(=O)N(C)[C@@H](C3CCCC3)C(=O)N(C)[C@H](C(=O)N(C)C)CC(=O)N(C)[C@H]3CCCCCCc4ccc(cc4)C[C@@H](C(=O)N(C)CC(=O)N[C@@H](CCc4ccc(C(F)(F)F)c(OC)c4)C(=O)N2C1)N1CC/C=C\C[C@@H](C1=O)N(C)C(=O)CN(C)C(=O)[C@H]([C@@H](C)CC)NC3=O` [PP3066], the “HRAS/KRAS (ratio of KD value for HRAS to KD value for KRAS)” value in assay [1] is “B (a compound having 3 or more and less than 10 is denoted as B)”. Also, the Kd in assay [2] (SPR, Single Cycle Kinetics) is 0.042 nM. Further, in assay [3], the “NRAS/KRAS (ratio of KD value for NRAS to KD value for KRAS)” value was “A (a compound having 10 or more and less than 20 is denoted as A)”.
As to `CCCN1C(=O)CN(C)C(=O)CN(C)C(=O)[C@H]([C@@H](C)CC)NC(=O)[C@H](CC(C)C)N(C)C(=O)C[C@@H](C(=O)N(C)C)N(C)C(=O)[C@H](C2CCCC2)N(C)C(=O)C2(CCCC2)NC(=O)[C@@H]2CC(F)(F)CN2C(=O)[C@H](CCc2ccc(C(F)(F)F)c(Cl)c2)NC(=O)CN(C)C(=O)[C@@H]1Cc1ccc(C(F)(F)F)cc1` [PP0413] ([NMeL]I[Sar][Sar][NPrPhe(4-CF3)][Sar][hPhe(3-Cl-4-CF3)][Pro(4,4-F2)][Ac5c][NMeGly(cPent)][NMeD]-NMe2; lactam N-11), in assay [1], the “HRAS/KRAS (ratio of KD value with respect to HRAS to KD value with respect to KRAS)” value was “C (A compound having a KD ratio of 0.1 or more and less than 3 is denoted as C)”. Also, the Kd in assay [2] (setting [5]) was 0.049 nM. In addition, the “NRAS/KRAS (ratio of KD value with respect to NRAS to KD value with respect to KRAS)” value in assay [3] was “C (A compound having a KD ratio of 0.1 or more and less than 3 is denoted as C)”.
As for `CCCN1C(=O)CN(C)C(=O)CN(CC)C(=O)[C@H]([C@@H](C)CC)NC(=O)[C@H](CC(C)C)N(C)C(=O)C[C@@H](C(=O)N(C)C)NC(=O)[C@H](C2CCCC2)N(C)C(=O)C2(CCCC2)NC(=O)[C@@H]2CCCN2C(=O)[C@H](CCc2ccc(C(F)(F)F)c(Cl)c2)NC(=O)CN(C)C(=O)[C@@H]1Cc1ccc(C(F)(F)F)cc1` [PP0367] ([NMeL]I[NEtG][Sar][NPrPhe(4-CF3)][Sar][hPhe(3-Cl-4-CF3)]P[Ac5c][NMeGly(cPent)]D-NMe2; lactam N-11), in assay [1], the “HRAS/KRAS (ratio of KD value for HRAS to KD value for KRAS)” value was “B (a compound having 3 or more and less than 10 is denoted as B)”. Besides, the Kd in assay [2] (setting [5]) turned out to be 1.3 nM. Further, the “NRAS/KRAS (ratio of KD value for NRAS to KD value for KRAS)” value in assay [3] is “B (a compound having 3 or more and less than 10 is denoted as B)”.
